The values below come from article PMC7767506, “Synthesis and Characterization of Store-Operated Calcium Entry Inhibitors Active in the Submicromolar Range” (International Journal of Molecular Sciences, 2020).

Entries after “also recorded” stand apart in the source; their conditions may differ.

Assay [1] deals with SOCE in DG75 (human Burkitt lymphoma cell line). The assay can be described thus: Thapsigargin-induced SOCE in DG75 cells, Indo-1. It is filed as cell-based. The method, then:
(§1) We also tested P11 on the DG75 (Burkitt B lymphoma), U937 (monocytic lymphoma), and MDA-MB231 (breast carcinoma) cell lines. […] Thus, in several cell lines, full inhibition of the SOCE was already obtained at a concentration of 100 nM (Figure 3B).
(§2) [Ca^2+]cyt was recorded by a fluorimetric ratio technique as previously described. Leukocytes were spun and resuspended at a density of 10^6 cells/mL in Hepes buffered saline (HBS; 135 mM NaCl, 5.9 mM KCl, 1.2 mM MgCl2, 11.6 mM Hepes, 11.5 mM glucose adjusted to pH 7.3 with NaOH). Due to the presence of 0.002% Ca^2+ in the NaCl, this HBS medium contained 0.1 mM of Ca^2+. Then, cells were incubated in the dark with 4 μM Indo-1-AM for one hour at room temperature under slow agitation. […] Ultraviolet light of 360 nm was used for excitation of Indo-1, and emissions at 405 and 480 nm were recorded. […] The maximum Indo-1 fluorescence (Rmax) was obtained by adding 1 µM ionomycin to the cell suspension in the presence of 10 mM extracellular CaCl2. Minimum fluorescence was determined following the depletion of external Ca^2+ with 5 mM EGTA.
(§3) To visualize the SOCE, cells were placed into the quartz cuvette and 0.5 EGTA was added just before the beginning of the recordings. […] In the dose-response experiments, different concentrations of 2-APB and its analogs were added 30 s prior to Ca^2+ readdition.

The subject of assay [2] is SOCE in U937 (human monocytic lymphoma cell line). The assay can be described thus: Thapsigargin-induced SOCE in U937 cells, Indo-1. The class given is cell-based. The method, then:
as §1, §2, §3

For assay [3], the target named is SERCA (Mus musculus, UniProt O55143). The experiment in a line: SERCA-mediated 45Ca2+ store loading in permeabilized L15 fibroblasts. The class given is cell-based. The method, then: Measurements of SERCA-mediated ^45Ca^2+ store loading and IP3-dependent release from the ER Ca^2+ store were performed on permeabilized cells in unidirectional conditions. As this approach required the use of cells forming strongly adherent monolayers, we used L15 fibroblasts stably overexpressing IP3R1, similarly to our previous work.
The L15 fibroblasts stably overexpressing IP3R1 were seeded in gelatin-coated 12-well plates (Greiner, Frickenhausen, Germany) at a density of 60,000 cells per well. Unidirectional ^45Ca^2+ flux experiments on confluent cell monolayers were performed at 30 °C after membrane permeabilization with saponin (40 µg/mL), exactly as previously described. After permeabilization, the non-mitochondrial Ca^2+ stores were loaded for 45 min in 120 mM KCl, 30 mM imidazole–HCl (pH 6.8), 5 mM MgCl2, 5 mM ATP, 0.44 mM EGTA, 10 mM NaN3, and 150 nM free ^45Ca^2+ (28 µCi mL^−1). Subsequently, efflux was initiated by incubation in efflux medium (120 mM KCl, 1 mM EGTA, 10 µM TG and 30 mM imidazole–HCl pH 6.8). The latter medium was replaced every two minutes for 18 minutes. The exact amount of Ca^2+ at each time point is calculated by summing in retrograde order the amount of radioactivity remaining in the cells at the end of the efflux and the radioactivity collected during the successive time intervals. This allows to calculate the steady-state content of the ER Ca^2+ stores (indicative for the SERCA activity, after subtraction of the loading achieved in the presence of 2 µM TG) the basal leak rate of Ca^2+ out of the stores and the IP3-induced Ca^2+ release after addition of IP3 (0.7 µM). These various parameters were measured both in control conditions or in the presence of various 2-APB analogs as indicated. To assess the effect of the 2-APB analogs on the SERCA-mediated loading of the ER Ca^2+ stores, the analogs were added during the ^45Ca^2+-loading phase as described previously. Obviously, compounds that strongly stimulated the basal Ca^2+ leak out of the stores (as P8) could not be investigated for their effect on SERCA activity (as Ca^2+ loading was already compromised by the increased leak) or on IP3-induced Ca^2+ release (as the decreased luminal Ca^2+ level impacted both the driving force for Ca^2+ release and the sensitivity of the IP3R).

Assay [4] deals with IL-2 synthesis by Jurkat T cells. The experiment in a line: IL-2 ELISA in supernatants of Jurkat cells. The class given is cell-based, human. The procedure:
We next studied the effect of increasing [P11] on the neo-synthesized IL-2 concentration in the medium of PHA -stimulated Jurkat cells after 24 h.
Forty-eight-well plates were seeded with 10^6 Jurkat T cells per well. Cells were then incubated for 24 h with or without 10 µg/mL PHA and 0 to 1 µM P11 in complete culture medium. After 24 h, supernatants were collected, and IL-2 amounts were quantified using a Quantikine Human IL-2 Immunoassay (R&D Systems Europe, Lille, France). Optical density (OD) was measured at 450 nm using a Victor3 plate reader (Perkin Elmer, Courtaboeuf, France). The concentration of supernatant IL-2 was determined from the OD curve obtained with the standard. Results were the mean of four repeats. In parallel plates, cell viability was accessed after treatment with trypan blue and counting with a Malassez hematimeter (Sigma-Aldrich, Saint Quentin Fallavier, France).
In general terms: In an ELISA, binding on a coated surface is turned into a signal by an enzyme label.

In assay [5] the test system is Orai1-expressing lymphoblastoid cell line. The assay can be described thus: SOCE in Orai1-expressing lymphoblastoid cell line (LCL Orai1+). The class given is cell-based, human. As to conditions: 1 µM. The procedure: We next tested P11 efficacy on two lymphoblastoid cell lines (“LCL”) established from an Orai1-deficient with a severe combined immunodeficiency (“LCL Orai1−”) and a healthy (“LCL Orai1+”) patients (Figure 3C [19]). […] However, CaCl2 addition after 10 min of TG treatment was only able to induce a massive [Ca^2+]cyt rise in LCL expressing Orai1 proteins, confirming the SOCE default of the SCID patient.
as §2, with “Ca^2+.” for “Ca^2+. Then, cells were incubated in the dark with 4 μM Indo-1-AM for one hour at room temperature under slow agitation.”
as §3

Sequence of SERCA (O55143 whole entry): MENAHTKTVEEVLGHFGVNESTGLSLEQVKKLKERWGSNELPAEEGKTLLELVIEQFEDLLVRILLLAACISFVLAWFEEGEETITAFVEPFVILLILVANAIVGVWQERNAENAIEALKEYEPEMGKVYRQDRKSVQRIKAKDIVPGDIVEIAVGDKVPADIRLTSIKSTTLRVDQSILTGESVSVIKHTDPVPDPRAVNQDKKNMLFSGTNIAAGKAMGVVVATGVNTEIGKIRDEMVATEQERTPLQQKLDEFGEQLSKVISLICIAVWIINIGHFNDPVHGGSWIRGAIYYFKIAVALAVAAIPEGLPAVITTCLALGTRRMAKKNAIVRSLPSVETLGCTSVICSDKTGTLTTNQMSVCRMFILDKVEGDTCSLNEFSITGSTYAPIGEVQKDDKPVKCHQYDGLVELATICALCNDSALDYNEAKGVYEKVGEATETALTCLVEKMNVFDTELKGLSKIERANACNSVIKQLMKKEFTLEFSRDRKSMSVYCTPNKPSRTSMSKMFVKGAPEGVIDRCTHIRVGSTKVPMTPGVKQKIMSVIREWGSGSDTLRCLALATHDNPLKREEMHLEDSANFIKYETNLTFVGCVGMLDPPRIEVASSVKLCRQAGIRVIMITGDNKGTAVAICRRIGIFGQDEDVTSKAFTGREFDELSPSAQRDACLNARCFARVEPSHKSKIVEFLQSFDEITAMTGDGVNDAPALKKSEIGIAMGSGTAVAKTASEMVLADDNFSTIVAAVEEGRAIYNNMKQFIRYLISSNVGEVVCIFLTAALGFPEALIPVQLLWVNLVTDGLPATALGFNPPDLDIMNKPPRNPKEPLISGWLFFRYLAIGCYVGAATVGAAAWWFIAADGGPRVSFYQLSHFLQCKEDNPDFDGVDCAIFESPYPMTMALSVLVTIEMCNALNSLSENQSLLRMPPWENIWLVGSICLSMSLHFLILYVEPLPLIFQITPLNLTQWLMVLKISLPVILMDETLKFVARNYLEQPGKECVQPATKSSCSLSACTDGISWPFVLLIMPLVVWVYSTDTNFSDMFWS

On to “2-(dibiphenyl-4-ylboryloxy)ethanamine [P11]”, for which the values for the Ki in assay [1] (DG75 cells), in assay [2] and in assay [3] (permeabilized L15 fibroblasts) were 32 ± 2 nM, 40 ± 5 nM and 7400 ± 2000 nM, respectively. Besides, the “concentration of full SOCE inhibition” value in assay [1] (in several cell lines (Figure 3B)) was found to be 100 nM. For the same substance, the “effect on SERCA” value in assay [3] (concentrations < 1 µM) is on record as “devoid of any inhibitory activity; also recorded: without any effect”. In assay [3] (concentrations > 30 µM), the “change of SERCA activity” value is −89 ± 1%. In addition, the “IL-2 synthesis by compound alone” value in assay [4] (1 µM, no PHA) is on record as “not able to induce IL-2 synthesis”. Also, the “IL-2 concentration in medium” value in assay [4] (10 µg/mL PHA + 1 µM P11, 24 h) was determined as 26 ± 6 pg/mL. In addition, the “change of IL-2 synthesis” value in assay [4] (10 µg/mL PHA + 1 µM P11, 24 h, vs PHA alone) is −74%. In addition, the “IL-2 corrected for the number of living cells” value in assay [4] (PHA + P11 (highest concentration), 24 h) is reported as 39.2 ± 8.6 pg/mL. For the same substance, in assay [4] (PHA + P11 vs PHA alone), the “decrease of IL-2 synthesis capacity of living cells” value is listed as “≈ 63%”. Also, in assay [5], the “effect on [Ca2+]cyt after SOCE activation” value was “immediate decrease of [Ca^2+]cyt”.
